Measurements reported in US12246076B2, “Radiolabeled compounds for in vivo imaging of gastrin-releasing peptide receptor (GRPR) and treatment of GRPR-related disorders” (PROVINCIAL HEALTH SERVICES AUTHORITY, priority 2022, dated 2025).
Numbered stars: 1 amine (or outer) side, 2 acyl side, 3 side chain; on linkers, the order of the positions; unused ones are H or OH. Square brackets hold non-standard residues; d marks the D form. Peptide text beside a SMILES is read from it. * marks the point of attachment. DOTA = O=C(O)CN1CCN(CC(=O)O)CCN(CC(=O)*)CCN(CC(=O)O)CC1; Leuψ(CH2N)ThzNH2 = CC(C)C[C@@H](CN1CSC[C@H]1C(N)=O)N*; X1 = O=C(CN1CCC(N[*:1])CC1)[*:2]

Tests used:
[1] = Ex vivo biodistribution in PC-3 tumor-bearing mice; conditions: male, NRG, mouse, iv, total radioactivity, 1 h post-injection, mice bearing PC-3 tumor xenografts, n = 4
Protocol: (§1) All imaging and biodistribution studies were performed using male NOD.Cg-Rag1^tm1MoM II2rg^tm1WI/SzJ (NRG) mice and conducted according to the guidelines established by the Canadian Council on Animal Care and approved by Animal Ethics Committee of the University of British Columbia. For tumor inoculations, mice were anesthetized by inhalation with 2% isoflurane in oxygen and implanted subcutaneously with 5×10^6 PC-3 cells below the left shoulder. Imaging and biodistribution studies were performed only after tumors grew to 5-8 mm in diameter.
(§2) For PET/CT imaging studies, ˜3-4 MBq of the ^68Ga-labeled tracer was injected through the tail vein. Mice were allowed to recover and roam freely in the cages after injecting the tracer. At 45 min post-injection (p.i.), mice were sedated again and positioned on the scanner. First, a 10 min CT scan was conducted for localization and attenuation correction for reconstruction of PET images, before a 10 min PET image was acquired. Heating pads were used during the entire procedure to keep the mice warm. For ex vivo biodistribution studies, mice were injected with ˜1.5-3 MBq of the ^68Ga-labeled tracer. At 1 h p.i., mice were euthanized, blood was drawn from heart, and organs/tissues of interest were collected, rinsed with PBS, blotted dry, weighed, and counted using an automated gamma counter. The uptake in each organ/tissue was normalized to the injected dose and expressed as the percentage of the injected dose per gram of tissue (% ID/g).
(§3) All imaging and biodistribution studies were performed using male NOD.Cg-Rag1tm1Mom II2rgtm1WjI/SzJ (NRG) mice and conducted according to the guidelines established by the Canadian Council on Animal Care and approved by Animal Ethics Committee of the University of British Columbia. For tumor inoculations, mice were anesthetized by inhalation with 2% isoflurane in oxygen and implanted subcutaneously with 5×10^6 PC-3 cells below the left shoulder. Imaging and biodistribution studies were performed only after tumors grew to 5-8 mm in diameter.
(§4) For PET/CT imaging studies, ˜5 MBq of the ^68Ga-labeled tracer was injected through the tail vein. Mice were allowed to recover and roam freely in the cages after injecting the tracer. At 45 min post-injection (p.i.), mice were sedated again and positioned on the scanner. First, a 10 min CT scan was conducted for localization and attenuation correction for reconstruction of PET images, before a 10 min PET image was acquired. Heating pads were used during the entire procedure to keep the mice warm. For ex vivo biodistribution studies, mice were injected with ˜3 MBq of the 68Ga-labeled tracer. At 1 h p.i., mice were euthanized, blood was drawn from heart, and organs/tissues of interest were collected, rinsed with PBS, blotted dry, weighed, and counted using an automated gamma counter.

in vivo = conditions: male, NRG, mouse, iv, total radioactivity
Protocol: as §1, §2, §3, §4

[2] = PC-3 tumor, Biodistribution PC3 tumor Mean
[3] = adrenal, Biodistribution Adrenal Mean
[4] = bone, Biodistribution Bone Mean
[5] = brain, Biodistribution Brain Mean
[6] = heart, Biodistribution Heart Mean
[7] = kidneys, Biodistribution Kidneys Mean
[8] = liver, Biodistribution Liver Mean
[9] = lungs, Biodistribution Lungs Mean
[10] = muscle, Biodistribution Muscle Mean
[11] = pancreas, Biodistribution Pancreas Mean
[12] = seminal, Biodistribution Seminal Mean
[13] = small intestine, Biodistribution Small Intestine Mean
[14] = spleen, Biodistribution Spleen Mean
[15] = stomach, Biodistribution Stomach Mean
[16] = testes, Biodistribution Testes Mean
[17] = whole blood, Biodistribution Blood Mean
[18] = large intestine, Biodistribution Large Intestine Mean
[19] = Biodistribution Large Intestine Mean
[20] = Biodistribution Small Intestine Mean

CC(C)C[C@H](NC(=O)[C@H](Cc1c[nH]cn1)NC(=O)CNC(=O)[C@@H](NC(=O)[C@H](C)NC(=O)[C@H](Cc1c[nH]c2ccccc12)NC(=O)[C@H](CCC(N)=O)NC(=O)[C@@H](Cc1ccccc1)NC(=O)CN1CCC(NC(=O)CN2CCN(CC(=O)O)CCN(CC(=O)O)CCN(CC(=O)O)CC2)CC1)C(C)C)C(=O)N1CSC[C@H]1C(N)=O [^68Ga-LW01025, metal not drawn]
tissue uptake at 1 h [1, 2]: 6.2 %ID/g | tissue uptake at 1 h [1, 3]: 0.54 %ID/g | tissue uptake at 1 h [1, 4]: 0.24 %ID/g | tissue uptake at 1 h [1, 5]: 0.03 %ID/g | tissue uptake at 1 h ([1]; fat, Biodistribution Fat Mean): 0.09 %ID/g | tissue uptake at 1 h [1, 6]: 0.13 %ID/g | tissue uptake at 1 h [1, 7]: 2.37 %ID/g | tissue uptake at 1 h [1, 8]: 0.29 %ID/g | tissue uptake at 1 h [1, 9]: 0.34 %ID/g | tissue uptake at 1 h [1, 10]: 0.13 %ID/g | tissue uptake at 1 h [1, 11]: 1.28 %ID/g | tissue uptake at 1 h [1, 12]: 0.06 %ID/g | tissue uptake at 1 h [1, 13]: 0.56 %ID/g | tissue uptake at 1 h [1, 14]: 0.23 %ID/g | tissue uptake at 1 h [1, 15]: 0.54 %ID/g | tissue uptake at 1 h [1, 16]: 0.16 %ID/g | tissue uptake at 1 h [1, 17]: 0.34 %ID/g

CC(C)C[C@H](NC(=O)[C@H](Cc1c[nH]cn1)NC(=O)CNC(=O)[C@@H](NC(=O)[C@H](C)NC(=O)[C@H](Cc1c[nH]c2ccccc12)NC(=O)[C@H](CCC(N)=O)NC(=O)[C@@H](Cc1ccc2ccccc2c1)NC(=O)CN1CCC(NC(=O)CN2CCN(CC(=O)O)CCN(CC(=O)O)CCN(CC(=O)O)CC2)CC1)C(C)C)C(=O)N1CSC[C@H]1C(N)=O [^68Ga-LW01029, metal not drawn]
tissue uptake at 1 h [1, 2]: 4.7 %ID/g | tissue uptake at 1 h [1, 3]: 0.82 %ID/g | tissue uptake at 1 h [1, 4]: 0.19 %ID/g | tissue uptake at 1 h [1, 5]: 0.04 %ID/g | tissue uptake at 1 h ([1]; fat, Biodistribution Fat Mean): 0.18 %ID/g | tissue uptake at 1 h [1, 6]: 0.36 %ID/g | tissue uptake at 1 h [1, 7]: 4.73 %ID/g | tissue uptake at 1 h [1, 18]: 0.96 %ID/g | tissue uptake at 1 h [1, 8]: 0.63 %ID/g | tissue uptake at 1 h [1, 9]: 1.82 %ID/g | tissue uptake at 1 h [1, 10]: 0.23 %ID/g | tissue uptake at 1 h [1, 11]: 2.56 %ID/g | tissue uptake at 1 h [1, 12]: 0.13 %ID/g | tissue uptake at 1 h [1, 13]: 1.05 %ID/g | tissue uptake at 1 h [1, 14]: 0.45 %ID/g | tissue uptake at 1 h [1, 15]: 0.77 %ID/g | tissue uptake at 1 h [1, 16]: 0.33 %ID/g | tissue uptake at 1 h [1, 17]: 1.08 %ID/g

CC(C)C[C@@H](CN1CSC[C@H]1C(N)=O)NC(=O)[C@H](Cc1c[nH]cn1)NC(=O)CNC(=O)[C@@H](NC(=O)[C@H](C)NC(=O)[C@H](Cc1c[nH]c2ccccc12)NC(=O)[C@H](CCC(N)=O)NC(=O)[C@@H](Cc1ccc2ccccc2c1)NC(=O)CN1CCC(NC(=O)CN2CCN(CC(=O)O)CCN(CC(=O)O)CCN(CC(=O)O)CC2)CC1)C(C)C [^68Ga-LW01059, metal not drawn]
tissue uptake at 1 h [1, 2]: 6.84 %ID/g | tissue uptake at 1 h [1, 3]: 1.81 %ID/g | tissue uptake at 1 h [1, 4]: 0.42 %ID/g | tissue uptake at 1 h [1, 5]: 0.06 %ID/g | tissue uptake at 1 h ([1]; fat, Biodistribution Fat Mean): 0.19 %ID/g | tissue uptake at 1 h [1, 6]: 0.66 %ID/g | tissue uptake at 1 h [1, 7]: 4.49 %ID/g | tissue uptake at 1 h [1, 18]: 0.66 %ID/g | tissue uptake at 1 h [1, 8]: 21.5 %ID/g | tissue uptake at 1 h [1, 9]: 3.05 %ID/g | tissue uptake at 1 h [1, 10]: 0.28 %ID/g | tissue uptake at 1 h [1, 11]: 7.26 %ID/g | tissue uptake at 1 h [1, 13]: 2.15 %ID/g | tissue uptake at 1 h [1, 14]: 0.68 %ID/g | tissue uptake at 1 h [1, 15]: 1.1 %ID/g | tissue uptake at 1 h [1, 16]: 0.33 %ID/g | tissue uptake at 1 h [1, 17]: 2.16 %ID/g

CC(C)C[C@@H](CN1CSC[C@H]1C(N)=O)NC(=O)[C@H](Cc1c[nH]cn1)NC(=O)CNC(=O)[C@@H](NC(=O)[C@H](C)NC(=O)[C@H](Cc1c[nH]c2ccccc12)NC(=O)[C@H](Cc1c[nH]cn1)NC(=O)[C@@H](Cc1ccccc1)NC(=O)CN1CCC(NC(=O)CN2CCN(CC(=O)O)CCN(CC(=O)O)CCN(CC(=O)O)CC2)CC1)C(C)C [^68Ga-LW01102, metal not drawn] ({DOTA}-[X1][dF]HWAVGH-{Leuψ(CH2N)ThzNH2})
tissue uptake at 1 h [1, 2]: 7.46 %ID/g | tissue uptake at 1 h [1, 3]: 1.36 %ID/g | tissue uptake at 1 h [1, 4]: 0.13 %ID/g | tissue uptake at 1 h [1, 5]: 0.04 %ID/g | tissue uptake at 1 h ([1]; fat, Biodistribution Fat Mean): 0.09 %ID/g | tissue uptake at 1 h [1, 6]: 0.36 %ID/g | tissue uptake at 1 h [1, 7]: 6.3 %ID/g | tissue uptake at 1 h [1, 18]: 1.25 %ID/g | tissue uptake at 1 h [1, 8]: 3.22 %ID/g | tissue uptake at 1 h [1, 9]: 1.55 %ID/g | tissue uptake at 1 h [1, 10]: 0.18 %ID/g | tissue uptake at 1 h [1, 11]: 13.1 %ID/g | tissue uptake at 1 h [1, 12]: 0.23 %ID/g | tissue uptake at 1 h [1, 13]: 2.85 %ID/g | tissue uptake at 1 h [1, 14]: 0.52 %ID/g | tissue uptake at 1 h [1, 15]: 1.23 %ID/g | tissue uptake at 1 h [1, 16]: 0.33 %ID/g | tissue uptake at 1 h [1, 17]: 1.13 %ID/g

CC(C)C[C@H](NC(=O)[C@H](Cc1c[nH]cn1)N(C)C(=O)CNC(=O)[C@@H](NC(=O)[C@H](C)NC(=O)[C@H](Cc1c[nH]c2ccccc12)NC(=O)[C@H](CCC(N)=O)NC(=O)[C@@H](Cc1ccccc1)NC(=O)CN1CCC(NC(=O)CN2CCN(CC(=O)O)CCN(CC(=O)O)CCN(CC(=O)O)CC2)CC1)C(C)C)C(=O)N1CSC[C@H]1C(N)=O [^68Ga-LW01107, metal not drawn]
tissue uptake at 1 h [1, 3]: 0.32 %ID/g | tissue uptake at 1 h [1, 10]: 0.07 %ID/g | tissue uptake at 1 h [1, 12]: 0.04 %ID/g | tissue uptake at 1 h (in vivo; Biodistribution Blood Mean): 0.3 %ID/g | tissue uptake at 1 h (in vivo; Biodistribution Bone Mean): 0.06 %ID/g | tissue uptake at 1 h (in vivo; Biodistribution Brain Mean): 0.01 %ID/g | tissue uptake at 1 h (in vivo; Biodistribution Fat Mean): 0.05 %ID/g | tissue uptake at 1 h (in vivo; Biodistribution Heart Mean): 0.11 %ID/g | tissue uptake at 1 h (in vivo; Biodistribution Kidneys Mean): 1.88 %ID/g | tissue uptake at 1 h (in vivo; [19]): 0.18 %ID/g | tissue uptake at 1 h (in vivo; Biodistribution Liver Mean): 0.32 %ID/g | tissue uptake at 1 h (in vivo; Biodistribution Lungs Mean): 0.28 %ID/g | tissue uptake at 1 h (in vivo; Biodistribution PC3 tumor Mean): 7.05 %ID/g | tissue uptake at 1 h (in vivo; Biodistribution Pancreas Mean): 0.39 %ID/g | tissue uptake at 1 h (in vivo; [20]): 0.31 %ID/g | tissue uptake at 1 h (in vivo; Biodistribution Spleen Mean): 0.13 %ID/g | tissue uptake at 1 h (in vivo; Biodistribution Stomach Mean): 0.07 %ID/g | tissue uptake at 1 h (in vivo; Biodistribution Testes Mean): 0.1 %ID/g

CC(C)C[C@H](NC(=O)[C@H](Cc1c[nH]cn1)NC(=O)CNC(=O)[C@@H](NC(=O)[C@H](C)NC(=O)[C@H](Cc1c[nH]c2ccccc12)NC(=O)[C@H](CCC(N)=O)NC(=O)[C@@H](Cc1ccccc1)NC(=O)CN1CCC(NC(=O)CN2CCN(CC(=O)O)CCN(CC(=O)O)CCN(CC(=O)O)CC2)CC1)C(C)(C)C)C(=O)N1CSC[C@H]1C(N)=O [^68Ga-LW01108, metal not drawn]
tissue uptake at 1 h [1, 12]: 0.11 %ID/g | tissue uptake at 1 h (in vivo; Biodistribution Adrenal Mean): 1.51 %ID/g | tissue uptake at 1 h (in vivo; Biodistribution Blood Mean): 0.59 %ID/g | tissue uptake at 1 h (in vivo; Biodistribution Bone Mean): 0.15 %ID/g | tissue uptake at 1 h (in vivo; Biodistribution Brain Mean): 0.02 %ID/g | tissue uptake at 1 h (in vivo; Biodistribution Fat Mean): 0.06 %ID/g | tissue uptake at 1 h (in vivo; Biodistribution Heart Mean): 0.18 %ID/g | tissue uptake at 1 h (in vivo; Biodistribution Kidneys Mean): 2.47 %ID/g | tissue uptake at 1 h (in vivo; [19]): 1.31 %ID/g | tissue uptake at 1 h (in vivo; Biodistribution Liver Mean): 0.35 %ID/g | tissue uptake at 1 h (in vivo; Biodistribution Lungs Mean): 0.49 %ID/g | tissue uptake at 1 h (in vivo; Biodistribution Muscle Mean): 0.17 %ID/g | tissue uptake at 1 h (in vivo; Biodistribution PC3 tumor Mean): 5.9 %ID/g | tissue uptake at 1 h (in vivo; Biodistribution Pancreas Mean): 9.32 %ID/g | tissue uptake at 1 h (in vivo; [20]): 2.29 %ID/g | tissue uptake at 1 h (in vivo; Biodistribution Spleen Mean): 0.4 %ID/g | tissue uptake at 1 h (in vivo; Biodistribution Stomach Mean): 0.89 %ID/g | tissue uptake at 1 h (in vivo; Biodistribution Testes Mean): 0.16 %ID/g

CC(C)C[C@@H](CN1CCC[C@H]1C(N)=O)NC(=O)[C@H](Cc1c[nH]cn1)NC(=O)CN(C)C(=O)[C@@H](NC(=O)[C@H](C)NC(=O)[C@H](Cc1c[nH]c2ccccc12)NC(=O)[C@H](CCC(N)=O)NC(=O)[C@@H](Cc1ccccc1)NC(=O)CN1CCC(NC(=O)CN2CCN(CC(=O)O)CCN(CC(=O)O)CCN(CC(=O)O)CC2)CC1)C(C)C [^68Ga-LW02045, metal not drawn]
tissue uptake at 1 h [1, 2]: 12.4 %ID/g | tissue uptake at 1 h [1, 3]: 0.44 %ID/g | tissue uptake at 1 h [1, 4]: 0.07 %ID/g | tissue uptake at 1 h [1, 5]: 0.02 %ID/g | tissue uptake at 1 h ([1]; fat, Biodistribution Fat Mean): 0.03 %ID/g | tissue uptake at 1 h [1, 6]: 0.14 %ID/g | tissue uptake at 1 h [1, 7]: 2.54 %ID/g | tissue uptake at 1 h [1, 18]: 0.34 %ID/g | tissue uptake at 1 h [1, 8]: 0.37 %ID/g | tissue uptake at 1 h [1, 9]: 1.08 %ID/g | tissue uptake at 1 h [1, 10]: 0.1 %ID/g | tissue uptake at 1 h [1, 11]: 1.37 %ID/g | tissue uptake at 1 h [1, 12]: 3.8 %ID/g | tissue uptake at 1 h [1, 13]: 0.48 %ID/g | tissue uptake at 1 h [1, 14]: 0.18 %ID/g | tissue uptake at 1 h [1, 15]: 0.35 %ID/g | tissue uptake at 1 h [1, 16]: 0.12 %ID/g | tissue uptake at 1 h [1, 17]: 0.43 %ID/g
